Reference: article PMC3556473, “Absorption, metabolism and excretion of [^14C]pomalidomide in humans following oral administration” (Cancer Chemotherapy and Pharmacology, 2012)
pEC50, pIC50: −log10 of the molar value. Values joined by “and” are separate entries in the source; they are usually repeats but may differ in a detail not shown here. Equal entries are not always repeated. Where two headings read alike, the source gives them in different places. One block for each compound: values may come before it.

Experiments:
U266 MM cell = assay: Inhibition of MM cell proliferation ([3H]-thymidine incorporation, 3-day culture); assay type: cell-based; details: Homo sapiens, U-266
Procedure: (§1) Metabolites and hydrolysis products of pomalidomide were tested for pharmacological activity in the following three assay systems: (1) inhibition of MM cell proliferation, (2) enhancement of primary human T cell IL-2 production and (3) inhibition of TNF-α production by lipopolysaccharide (LPS)-stimulated human peripheral blood mononuclear cells (PBMC). For all three assay types, compounds were dissolved in 100 % dimethyl sulfoxide (DMSO) and diluted into complete cell culture medium, consisting of Roswell Park Memorial Institute (RPMI)-1640 plus penicillin, streptomycin and L-glutamine (Mediatech, Manassas, VA). The MM cell proliferation cell culture medium contained 10 % fetal bovine serum, while the primary human cell cultures contained 10 % human AB serum (Invitrogen, Brown Deer, WI). The final DMSO concentration in the cell culture media was 0.25 %.
(§2) The human MM cell line OPM-2 was obtained from DSMZ (Braunschweig, Germany), and human MM cell lines U266 B1 and NCI-H929 were obtained from ATCC (Manassas, VA). Inhibition of MM cell proliferation was assessed by the [^3H]-thymidine incorporation assay in a 3-day culture in the presence of compounds in complete medium, as previously described. Primary human T cells were isolated from PBMC by negative selection using the RosetteSep T Cell Enrichment Cocktail (STEMCELL Technologies, Tukwila, WA) according to the manufacturer’s procedures. Costimulation of T cell IL-2 production was measured in a 2-day culture of primary human T cells isolated from healthy donors stimulated with anti-CD3 antibody in the presence of compounds, as previously described. Inhibition of TNF-α production by LPS-stimulated human PBMC was measured in a 1-day culture in the presence of compound, as previously described.

H929 MM cell = assay: as above; assay type: cell-based; details: Homo sapiens, NCI-H929
Procedure: as §1, §2

OPM-2 MM cell = assay: as above; assay type: cell-based; details: Homo sapiens
Procedure: as §1, §2

[1] = Metabolite profiling of urine and feces (% of dose excreted); assay type: in vivo, human; design: key to % of dose excreted, Feces / % of dose excreted, Urine: ND: not detected; D: detected by MS, but at concentrations too low to accurately quantify by radiochromatography; details: radiochromatography; for % of dose excreted, Urine: pooled urine 0–72 h
Procedure: For each subject, urine samples were pooled using an equal percentage by volume of the 0–6, 6–12, 12–24, 24–48 and 48–72 h samples. Pools of the 0–6, 6–12, 12–24, 24–48 and 48-72 h collections were also prepared across subjects and analyzed for metabolite profiling. Samples were mixed and centrifuged prior to the supernatants being transferred to fresh tubes for metabolite profiling analysis.
For each subject, fecal homogenates for metabolite profiling were pooled using an equal percentage by weight of the 0–24, 24–48, 48–72 and 72–96 h samples. Pools of the 0–24, 24-48, 48–72 and 72–96 h collections were also prepared across subjects and analyzed for metabolite profiling. An aliquot of each pool was extracted with acetonitrile; samples were mixed and centrifuged. The supernatant was removed and the pellets re-suspended with 0.1 % formic acid and extracted with acetonitrile. The combined supernatants were evaporated to dryness under a stream of nitrogen and the residue re-suspended in methanol:0.1 % formic acid in water (1:1). Samples were assayed for extraction recovery prior to metabolite profiling. A control fecal homogenate spiked with [^14C]pomalidomide was extracted in a similar manner to determine the extraction efficiency and stability of [^14C]pomalidomide.
(§3) HPLC analysis for metabolite profiling (HPLC Method 1) was performed using a Waters 2695 Alliance Separation Module (Waters Corp., Milford, MA) with the autosampler set to 4 °C. [^14C]Pomalidomide and metabolites were separated using an ACE C18 column (150 × 4.6 mm, 3 μm; Advanced Chromatography Technologies, Aberdeen, Scotland) equipped with an ACE C18 guard column (10 × 3 mm, 3 μm). The mobile phases used were 25 mM ammonium acetate in water: pH 5.5 with formic acid (mobile phase A) and methanol (mobile phase B). The column temperature was 30 °C, and the flow rate was 0.7 mL/min. The linear gradient was delivered as follows: 0–2 min 100 % A; 2–38 min to 64 % A; 38–44 min to 0 % A; 44–48 min hold at 0 % A; return to initial conditions over 2 min.
(§4) Radioactivity profiles for plasma and excreta were determined by collecting the column eluate into 96-well Deepwell LumaPlates™ at a rate of 0.25 min/fraction. The plates were dried and the radioactivity in each well determined using a PerkinElmer TopCount® NXT™ Microplate Scintillation Counter. HPLC radiochromatograms were reconstructed using LC-ARC data handling software.

[2] = Plasma pharmacokinetics of pomalidomide and circulating metabolites by radiochromatography (metabolite profiling); assay type: in vivo, human; design: key to Plasma (% AUC relative to TRA): ND: not detected; D: detected by MS, but at concentrations too low to accurately quantify by radiochromatography; AUC0–24 / AUC0−∞: concentration or dose not given beside the values; details: for Plasma (% AUC relative to TRA): AUC0–24 (unchanged drug or metabolite)/AUC0–24 (TRA) * 100 %; for AUC/AUCTRA: plasma exposure relative to total radioactivity
Procedure: Individual plasma samples collected from all subjects at 1, 2.5, 4, 6, 10, 12 and 24 h post-dose were analyzed for metabolite profiling. Samples were extracted with acetonitrile, the supernatant was removed, and the pellet was washed with 0.1 % formic acid in water and extracted again with acetonitrile. The combined supernatants were adjusted to 15 or 25 mL by adding acetonitrile then evaporated to dryness under a stream of nitrogen. The residues were re-suspended in 0.1 % formic acid in water, assayed for extraction recovery and analyzed for metabolite profiling. A control plasma sample spiked with [^14C]pomalidomide was extracted in a similar manner to determine the extraction efficiency and stability of [^14C]pomalidomide.
as §3, §4
For pomalidomide and metabolite concentrations in plasma based on metabolite profiling data, pharmacokinetic data were generated by non-compartmental analysis of plasma versus time profiles using WinNonlin (version 4.1, Enterprise Edition).

T cell IL-2 production = assay: Enhancement of primary human T cell IL-2 production (anti-CD3 stimulated, 2-day culture); assay type: cell-based; details: 48 h, anti-CD3 stimulated primary human T cells
Procedure: as §1, §2

PBMC TNF-α production = assay: Inhibition of TNF-α production by LPS-stimulated human PBMC (1-day culture); assay type: cell-based; details: 24 h
Procedure: as §1, §2

[3] = cited from earlier work
[4] = lenalidomide, listed as lenalidomide
[5] = plasma, radiochromatography, geometric mean (%CV)

- pIC50 (U266 MM cell): < 6.00
- pIC50 (H929 MM cell): < 6.00
- % of dose excreted, Feces ([1]; pooled feces 0–96 h): D
- % of dose excreted, Urine [1]: 0.1%
- Plasma (% AUC relative to TRA) [2]: D
- pEC50 (T cell IL-2 production): < 5.00
SMILES: CC(=O)Nc1cccc2c1C(=O)N(C1CCC(=O)NC1=O)C2=O (stereo not shown) [Metabolite M18, N-acetyl pomalidomide]
- pIC50 (OPM-2 MM cell): < 6.00
- pIC50 (PBMC TNF-α production): < 5.00

- % of dose excreted, Urine [1]: 17% and 17.1%
- Plasma (% AUC relative to TRA) [2]: 4.6%
- AUC/AUCTRA [2]: 4.59%
- AUC0–24 [2, 5]: 8.90 (20.9) ngEq*h/mL
- AUC0−∞ [2, 5]: 10.1 (30.2) ngEq*h/mL
- C max [2, 5]: 0.664 (23.5) ngEq/mL
- t ½ [2, 5]: 9.06 (18.7) h
- T max ([2]; plasma, radiochromatography, median and range): 2.5 (1.0–6.0) h
SMILES: Nc1c(O[C@@H]2O[C@H](C(=O)O)[C@@H](O)[C@H](O)[C@H]2O)ccc2c1C(=O)N(C1CCC(=O)NC1=O)C2=O (stereo partly shown) [Metabolite M12]

- % of dose excreted, Urine [1]: 1.4%
- Plasma (% AUC relative to TRA) [2]: 1.7%
- Tmax ([2]; human, oral, 2 mg, plasma, radiochromatography, median and range): 6 h
- half-life ([2]; male, human, plasma, oral, 2 mg, plasma, radiochromatography, geometric mean (%CV), read-out: t ½ (converted)): 13.2 h
- AUC/AUCTRA [2]: 1.71%
- AUC0–24 [2, 5]: 3.31 (28.4) ngEq*h/mL
- AUC0−∞ [2, 5]: 4.27 (12.7) ngEq*h/mL
- C max [2, 5]: 0.238 (36.3) ngEq/mL
SMILES: Nc1cccc(C(=O)O)c1C(=O)O [Metabolite M2, 3-Aminophthalic acid]

Continued, compound first:

SMILES: O=C1CCC(N2C(=O)c3ccccc3C2=O)C(=O)N1 (stereo not shown) [Thalidomide, thalidomide]
- Percent dose excreted in human urine, Hydrolysis products ([3]; thalidomide): 87.2%
- Percent dose excreted in human urine, Metabolites (oxidative and conjugative) ([3]; thalidomide): Trace
- Percent dose excreted in human urine, Parent ([3]; thalidomide): 1.8%
- Percent dose excreted in human urine, Total ([3]; thalidomide): 91.9%
- Percent dose excreted in human urine, Total ([3]; thalidomide, listed as thalidomide): > 90%

SMILES: Nc1cccc2c1CN(C1CCC(=O)NC1=O)C2=O (stereo not shown) [Lenalidomide, lenalidomide]
- Percent dose excreted in human urine, Metabolites (oxidative and conjugative) ([3]; lenalidomide): 5.3%
- Percent dose excreted in human urine, Parent ([3]; lenalidomide): 81.7%
- Percent dose excreted in human urine, Total ([3]; lenalidomide): 90.3%
- Percent dose excreted in human urine, Parent [3, 4]: > 80%
- Percent dose excreted in human urine, Total [3, 4]: > 90%
